Experimental findings from patent US20260285874A1, “SALT FORM AND CRYSTAL FORM OF THIENOPYRIMIDINE COMPOUND, AND PREPARATION METHOD THEREFOR AND USE THEREOF” (SHANDONG LUYE PHARMACEUTICAL CO., LTD., priority 2023, published 2026) are described below.

Data set [1] can be described thus: Pituitary tissue distribution in SD rats after intragastric administration. It is filed as in vivo. The conditions noted are these: i.g 12 mg/kg; for Plasma concentration: in ng/mL (unit assumed). The protocol: (§1) • Rats: SD rats, male, 200-250 g • Instruments: water purification instrument, Millipore; electronic balance, METTLER TOLEDO; high-speed benchtop centrifuge, Thermo; water bath thermostatic oscillator, Shanghai Yiheng Technical Co., Ltd.; vortex oscillator, Thermo; LC-MS/MS, AB SCIEX. • Method: Solutions of all compounds were prepared using DMSO and 20% solutol. In the pharmacokinetic experiment, the administration dose for the intravenous group (i.v) was 1 mg/kg, and the administration dose for the intragastric group (i.g) was 12 mg/kg; each group contained 3 rats. Blood was collected from the orbit of the rats before administration (0 h) and at set time points after administration. In the tissue distribution experimental group, the rats were intragastrically dosed at 12 mg/kg. […] in a heparinized EP tube and centrifuged at 13,500 rpm for 10 min to isolate the plasma. The pituitary was homogenized with water in a certain ratio. The plasma and pituitary homogenates were pre-treated and then analyzed by LC-MS/MS to determine the concentrations of the test substances in the plasma and the pituitary. The plasma drug concentration data were processed in a non-compartmental model using WinNonlin™ Version 6.3 (Pharsight, Mountain View, CA) pharmacokinetic software.

The target in data set [2] is T1, human GnRHR (Homo sapiens, UniProt P30968).
T1 sequence (P30968 1-328): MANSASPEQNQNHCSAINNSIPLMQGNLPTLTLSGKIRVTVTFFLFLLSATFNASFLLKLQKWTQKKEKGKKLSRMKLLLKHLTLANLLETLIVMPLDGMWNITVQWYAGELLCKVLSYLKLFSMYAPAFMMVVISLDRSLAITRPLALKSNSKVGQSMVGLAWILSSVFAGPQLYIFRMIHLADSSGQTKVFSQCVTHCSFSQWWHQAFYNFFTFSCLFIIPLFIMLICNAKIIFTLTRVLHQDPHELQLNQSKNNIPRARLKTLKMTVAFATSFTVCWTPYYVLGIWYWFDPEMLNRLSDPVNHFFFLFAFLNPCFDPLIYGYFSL
Nature of the data set: In vitro antagonistic activity screening (FLIPR calcium fluorescence, leuprolide acetate stimulation). It is filed as cell-based. The protocol:
• Cell: HEK293 cells stably expressing human GnRHR (WuXi AppTec (Shanghai) Co., Ltd.) • Equipment: 384-well plate, Greiner; Vi-cell XR Cell Viability Analyzer, Beckman Coulter; incubator, Thermo. • Method: HEK293 cells stably expressing human GnRHR were seeded into a 384-well plate at a density of 20,000 cells/well. Fluo-4 Direct™ No-wash Loading Buffer (Invitrogen) was added to each well the next day, and then the plate was put back into an incubator, incubated at 37° C. for 50 min, and then incubated at room temperature for 10 min. […] Fluorescence was measured using a FLIPR Tetra high-throughput real-time fluorescence assay and analysis system. Then 10 μL of Leuprolide acetate was added, and fluorescence was measured. The IC50 and IC90 of the compound were calculated using Prism.

The nature of data set [3]: In vivo pharmacokinetics in SD rats. The conditions noted are these: intragastric administration group. The method, then: as §1
The target of data set [4] is T2, human hERG potassium channel (Homo sapiens, UniProt Q12809).
T2 construct: host or cells: CHO
Nature of the data set: hERG test (QPatch automated patch clamp, CHO cells). The format is cell-based. The method, then:
• Cell: CHO cells stably expressing a human hERG potassium channel (WuXi AppTec (Shanghai) Co., Ltd.) • Reagents: physiological solution (PH=7.4): 140 mM NaCl, 4 mM KCl, 2 mM CaCl2), 1 mM MgCl2, 5 mM glucose, 10 mM HEPES, osmolarity: about 298 mOsm; external solution (PH=7.4): 80 mM NaCl, 4 mM KCl, 2 mM CaCl2, 1 mM MgCl2, 5 mM glucose, 60 mM NMDG, 10 mM HEPES, osmolarity: about 289 mOsm; and internal solution (PH=7.4): 10 mM NaCl, 10 mM KCl, 110 mM KF, 10 mM HEPES, EGTA: […], osmolarity: about 280 mOsm. • Equipment: QPatch high-throughput automated patch clamp system, Sophion. • Method: CHO cells stably expressing a human hERG potassium channel were digested with TrypLE and resuspended in the physiological solution for later use. The single-cell high-impedance sealing and whole-cell mode formation processes were automatically completed by Qpatch. The cells were clamped at a voltage of −80 mV, then a voltage of −50 mV was applied for 80 ms to subtract (current) leakage, and a voltage of +20 mV was applied for 4800 ms to open the hERG channel. The voltage was then reduced to −50 mV and maintained for 5000 ms. This process was used for data collection and analysis. Finally, the voltage was returned to the clamping voltage (−80 mV, 1000 ms). This process was repeated every 20,000 ms. […]
For orientation: The hERG channel carries a current that helps repolarise heart muscle cells.

Data set [5] deals with T1, human GnRHR. Description: In vitro binding screening ([125I]-[D-Trp6]-LH-RH displacement, Chem-1 cell membrane). Set-up: host or cells: Chem-1 cells (membrane preparation). The protocol:
1 μM [D-Trp6]-LH-RH was used in the non-specific binding assay. The cell membrane was collected by filtration under vacuum and washed before liquid scintillation. The binding IC50 and IC90 of the compound were calculated using Prism.

Data set [6] relates to Caco-2 cells. Description: Permeability and transporter substrate evaluation in Caco-2 monolayer. It is filed as in vitro ADME. The protocol:
• Cell: Caco-2 cells • Instruments: water purification instrument, ELGA Lab Wate; biosafety cabinet, NUAIRE; thermostatic CO2 incubator, Thermo; microplate reader, PerkinElmer; LC-MS/MS, AB SCIEX. • Method: A Caco-2 monolayer cell model was used to determine the two-way permeability of the test substance and evaluate whether the test substance was transported via efflux by a transporter. In the experiment, Caco-2 cells were seeded into a 96-well cell culture plate and cultured for 28 consecutive days before a transport assay. The test substance was administered on two sides. After 120 min of incubation, samples of apical end A, basal end B, and the cell lysate were collected, and the content of the test substance in the samples was quantitatively determined using a liquid chromatography-tandem mass spectrometry (LC/MS/MS) method. The apparent permeability coefficients (Papp) in the direction from the apical end to the basal end (A-B) and in the direction from the basal end to the apical end (B-A) and the efflux ratio were calculated based on the concentration of the test substance.
(Caco-2 monolayers are a common model of the intestinal barrier.)

T2 sequence (Q12809 whole entry): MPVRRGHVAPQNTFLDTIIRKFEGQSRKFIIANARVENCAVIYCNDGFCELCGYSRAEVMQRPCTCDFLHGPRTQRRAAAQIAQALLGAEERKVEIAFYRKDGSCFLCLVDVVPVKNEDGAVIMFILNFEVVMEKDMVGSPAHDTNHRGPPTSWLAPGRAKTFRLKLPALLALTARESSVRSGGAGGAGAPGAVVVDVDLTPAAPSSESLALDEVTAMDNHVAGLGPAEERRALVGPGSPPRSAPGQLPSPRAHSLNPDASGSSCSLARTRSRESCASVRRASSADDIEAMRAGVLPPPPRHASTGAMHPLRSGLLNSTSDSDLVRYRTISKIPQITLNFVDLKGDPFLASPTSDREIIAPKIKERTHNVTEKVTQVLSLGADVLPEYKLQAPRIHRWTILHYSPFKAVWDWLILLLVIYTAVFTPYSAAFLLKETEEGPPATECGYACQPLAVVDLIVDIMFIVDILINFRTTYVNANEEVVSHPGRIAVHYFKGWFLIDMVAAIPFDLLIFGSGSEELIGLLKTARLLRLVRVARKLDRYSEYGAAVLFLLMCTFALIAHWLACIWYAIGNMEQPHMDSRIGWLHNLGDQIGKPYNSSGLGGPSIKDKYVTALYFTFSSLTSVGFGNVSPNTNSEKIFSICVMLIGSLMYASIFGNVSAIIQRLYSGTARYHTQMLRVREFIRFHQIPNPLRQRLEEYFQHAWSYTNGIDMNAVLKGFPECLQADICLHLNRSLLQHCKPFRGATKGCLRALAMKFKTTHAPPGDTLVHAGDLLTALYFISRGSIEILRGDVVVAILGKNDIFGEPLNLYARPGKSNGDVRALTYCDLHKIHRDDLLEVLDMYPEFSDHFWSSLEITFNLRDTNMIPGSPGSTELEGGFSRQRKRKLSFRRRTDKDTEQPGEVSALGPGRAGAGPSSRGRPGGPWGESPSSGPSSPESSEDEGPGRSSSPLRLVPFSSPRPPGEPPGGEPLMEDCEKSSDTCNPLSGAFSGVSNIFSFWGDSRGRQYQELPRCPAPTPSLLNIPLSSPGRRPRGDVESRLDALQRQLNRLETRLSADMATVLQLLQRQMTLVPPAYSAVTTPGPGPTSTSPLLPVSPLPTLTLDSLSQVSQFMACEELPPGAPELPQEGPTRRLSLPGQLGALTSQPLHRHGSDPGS

As to `CCNC(=O)Nc1ccc(-c2sc3c(c2CN(C)C)c(=O)n(-c2ccc(OC)nn2)c(=O)n3Cc2c(F)cccc2F)cn1` [Formula I], the Pituitary concentration in data set [1] (1 h) is 2250 ± 474; in data set [1] (4 h) it was 1841 ± 636; in data set [1] (12 h), 1254 ± 494. Moreover, the Plasma concentration in data set [1] (1 h) is recorded as 39.5 ± 14.0; in data set [1] (4 h) it was 22.8 ± 2.5; in data set [1] (12 h), 9.70 ± 3.10. For the same molecule, in data set [2], the “Inhibitory effect on human GnRHR (conclusion)” value is listed as “significant inhibitory effect”. The “Absolute bioavailability relative to Relugolix” value in data set [3] was 3.47 times. In addition, the “Inhibitory activity against the human hERG potassium channel (conclusion)” value in data set [4] was “relatively low inhibitory activity”. The “Binding ability to human GnRHR (conclusion)” value in data set [5] is listed as “significant binding ability”. Also, the “Efflux ratio (conclusion)” value in data set [6] is reported as “relatively low efflux ratio”.
